Test results from paper PMC4820240 (Angewandte Chemie (International ed. in English), 2016).

Legend:
A549 cells = assay: Cytotoxicity of CPPs towards A549 cells; assay type: cell-based; details: read-out: IC50 A549; toxicity towards A549 cells
HeLa cells = details: read-out: IC50 HeLa; toxicity towards HeLa cells
MCF-7 cells = details: read-out: IC50 MCF-7; toxicity towards MCF-7 cells
human RBCs = details: read-out: EC50 RBCs (hemolysis); freshly isolated human RBCs
[1] = Serum stability in 25% serum solution; details: 25% serum solution as a function of time (Figure 4B legend)

| SMILES | IC50 (A549 cells) [µM] | IC50 (HeLa cells) [µM] | IC50 (MCF-7 cells) [µM] | EC50 (human RBCs) [µM] | t1/2, serum stability [1] [h] |
| --- | --- | --- | --- | --- | --- |
| N=C(N)NCCC[C@H](NC(=O)CN)C(=O)N[C@@H](CCCCN)C(=O)N[C@@H](CCCCN)C(=O)N[C@@H](CCCNC(=N)N)C(=O)N[C@@H](CCCNC(=N)N)C(=O)N[C@@H](CCC(N)=O)C(=O)N[C@@H](CCCNC(=N)N)C(=O)N[C@@H](CCCNC(=N)N)C(=O)N[C@@H](CCCNC(=N)N)C(=O)N1CCC[C@H]1C(=O)N1CCC[C@H]1C(=O)N[C@@H](CCC(N)=O)C(N)=O [TAT] | > 1000 | > 1000 | 603 | 269 | 1.7 |
| N=C(N)NCCC[C@H](NC(=O)[C@H](CCCNC(=N)N)NC(=O)[C@H](CCCNC(=N)N)NC(=O)[C@H](CCCNC(=N)N)NC(=O)[C@H](CCCNC(=N)N)NC(=O)[C@H](CCCNC(=N)N)NC(=O)[C@H](CCCNC(=N)N)NC(=O)[C@@H](N)CCCNC(=N)N)C(N)=O [R8] | > 1000 | 269 | 170 | 371 | – |
